# Source: patent US4198506A, “2-Carboxyalkyl-2,3-dihydro-6-mercapto-s-triazolo[4,3-b]-pyridazin-3-ones” (Bristol-Myers Company, priority 1979, dated 1980)
# Read-outs that look alike come from different tables or passages of the source.
# Columns and labels:
# E. coli Juhl = assay: In vivo activity (Mice, sc); details: Escherichia coli, several determinations listed, read-out: PD50
# Source text: (§1) |In vivo Activity of BB-[…] and Related Compounds (Mice, sc) | (PD50 (mgm./kg.)
# S. aureus Smith = assay: In vivo activity (Mice, sc); details: Staphylococcus aureus, several determinations listed, read-out: PD50
# Source text: as §1
# Proteus (indole +) = assay: In vitro activity (geometric mean MIC, serial dilution); type: cell-based; details: read-out: Geometric Mean MIC
# S. aureus (sensitive) = assay: as above; type: cell-based; details: Staphylococcus aureus, read-out: Geometric Mean MIC
# Proteus (indole-) = assay: as above; type: cell-based; details: read-out: Geometric Mean MIC
# [1] = system: S. aureus (Methicillin-R); assay: as above; type: cell-based; details: Staphylococcus aureus; 15 strains; Mueller-Hinton agar, inoculum 10^4 dilution; MIC cutoff 200 mcg./ml.
# D. pneumoniae = assay: as above; type: cell-based; details: Streptococcus pneumoniae; 9 strains; Mueller-Hinton agar, inoculum 10^4 dilution; MIC cutoff 200 mcg./ml.
# S. pyogenes = assay: as above; type: cell-based; details: Streptococcus pyogenes; 10 strains; Mueller-Hinton agar, inoculum 10^4 dilution; MIC cutoff 200 mcg./ml.
# Enterobacter (sensitive) = assay: as above; type: cell-based; details: 3 strains, Mueller-Hinton agar, inoculum 10^4 dilution, MIC cutoff 200 mcg./ml., read-out: Geometric Mean MIC
# E. coli (sensitive) = assay: as above; type: cell-based; details: Escherichia coli, read-out: Geometric Mean MIC
# [2] = system: S. aureus penicillinase+); assay: as above; type: cell-based; details: Staphylococcus aureus; 13 strains; Mueller-Hinton agar, inoculum 10^4 dilution; MIC cutoff 200 mcg./ml.; read-out: Geometric Mean MIC
# S. marcescens = assay: as above; type: cell-based; details: Serratia marcescens; 16 strains; Mueller-Hinton agar, inoculum 10^4 dilution; MIC cutoff 200 mcg./ml.; read-out: Geometric Mean MIC
# [3] = system: Proteus (indole +, cephalosporinase +); assay: as above; type: cell-based; details: 5 strains; Mueller-Hinton agar, inoculum 10^4 dilution; MIC cutoff 200 mcg./ml.; read-out: Geometric Mean MIC
# Klebsiella sp. = assay: as above; type: cell-based; details: 12 strains, Mueller-Hinton agar, inoculum 10^4 dilution, MIC cutoff 200 mcg./ml., read-out: Geometric Mean MIC
# Providencia sp. = assay: as above; type: cell-based; details: 5 strains, Mueller-Hinton agar, inoculum 10^4 dilution, MIC cutoff 200 mcg./ml., read-out: Geometric Mean MIC
# [4] = system: Enterobacter (Cephalosporinase +); assay: as above; type: cell-based; details: 7 strains, Mueller-Hinton agar, inoculum 10^4 dilution, MIC cutoff 200 mcg./ml.
# [5] = system: E. coli (Penicillinase +); assay: as above; type: cell-based; details: Escherichia coli; 7 strains; Mueller-Hinton agar, inoculum 10^4 dilution; MIC cutoff 200 mcg./ml.; read-out: Geometric Mean MIC
# [6] = system: Miscellaneous (Salmonella, Shigella, Citrobacter); assay: microbe, parasite or virus in culture; details: read-out: Geometric Mean MIC
# Shig. dysenteriae = assay: In vitro antibacterial activity (Steers' agar dilution MIC); type: cell-based; details: Shigella dysenteriae, table 2 (BB-S493); Shig dysenteriae
# Shig. flexneri = assay: as above; type: cell-based; details: Shigella flexneri; table 2 (BB-S493); Shig. flexneri A9684; read-out: MIC
# Source text: (§2) In vitro Antibacterial Activity of BB-S493 Compared with
# (§3) BB-S479 and Cefamandole (Determined by Steers' Agar Dilu-
# (§4) tion Method on Mueller-Hinton Agar Plate)
# (§5) In vitro antibacterial activity of BB-S 525 compared with
# (§6) BB-S 479 and cefamandole (determined by Steers' agar dilution
# (§7) method on Mueller-Hinton agar plate)
# Kl. pneumoniae = assay: as above; type: cell-based; details: Klebsiella pneumoniae, table 2 (BB-S493)
# Source text: as §2, §3, §4, §5, §6, §7
# Shig. sonnei = assay: as above; type: cell-based; details: Shigella sonnei, table 2 (BB-S493); Shig. sonnei A9516
# Source text: as §2, §3, §4, §5, §6, §7
# E. coli = assay: as above; type: cell-based; details: Escherichia coli, read-out: MIC
# Source text: as §2, §3, §4, §5, §6, §7
# Sal. typhosa = assay: as above; type: cell-based; details: table 2 (BB-S493); Sal. typhosa A9498
# Source text: as §2, §3, §4, §5, §6, §7
# S. aureus = assay: as above; type: cell-based; details: Staphylococcus aureus, table 2 (BB-S493)
# Source text: as §2, §3, §4, §5, §6, §7
# Ps. aeruginosa = assay: as above; type: cell-based; details: table 2 (BB-S493)
# Pr. morganii = assay: as above; type: cell-based; details: Morganella morganii, table 2 (BB-S493), read-out: MIC
# Enterob. cloacae = assay: as above; type: cell-based; details: table 2 (BB-S493); Enterob. cloacae A9656; read-out: MIC
# St. faecalis = assay: as above; type: cell-based; details: Enterococcus faecalis, table 2 (BB-S493); St. faecalis A9536; read-out: MIC
# Pr. mirabilis = assay: as above; type: cell-based; details: Proteus mirabilis, table 2 (BB-S493), read-out: MIC
# B. anthracis = assay: microbe, parasite or virus in culture; type: cell-based; details: Bacillus anthracis, table 2 (BB-S493); B. anthracis A9504
# Pr. vulgaris = assay: In vitro antibacterial activity (Steers' agar dilution MIC); type: cell-based; details: Proteus vulgaris, table 2 (BB-S493), read-out: MIC
# Sal. enteritidis = assay: as above; type: cell-based; details: Salmonella enterica, table 2 (BB-S493), Sal. enteritidis A9531
# Pr. rettgeri = assay: as above; type: cell-based; details: Providencia rettgeri, table 2 (BB-S493); Pr. rettgeri A15167
# Serr. marcescens = assay: as above; type: cell-based; details: Serratia marcescens; table 2 (BB-S493); Serr. marcescens A20019; read-out: MIC
compound,measurement,setting,value
"NCc1ccsc1CC(=O)N[C@@H]1C(=O)N2C(C(=O)O)=C(CSc3ccc4nn(CC(=O)O)c(=O)n4n3)CS[C@H]12 [BB-S483, 7-(3-Aminomethyl-2-thienylacetamido)-3-(2-carboxymethyl-2,3-dihydro-s-triazolo[4,3-b]pyridazin-3-on-6-ylthiomethyl)-3-cephem-4-carboxylic Acid]",ED50,E. coli Juhl,0.15 mg/kg
same,ED50,S. aureus Smith,0.34 mg/kg
same,MIC,Proteus (indole +),0.4 µg/mL
same,MIC,S. aureus (sensitive),0.3 µg/mL
same,MIC,Proteus (indole-),0.7 µg/mL
same,MIC,[1],48 µg/mL
same,MIC,D. pneumoniae,0.04 µg/mL
same,MIC,S. pyogenes,0.08 µg/mL
same,MIC,Enterobacter (sensitive),1.3 µg/mL
same,MIC,E. coli (sensitive),0.3 µg/mL
same,MIC,[2],1.1 µg/mL
same,MIC,S. marcescens,81 µg/mL
same,MIC,[3],17 µg/mL
same,MIC,Klebsiella sp.,1.1 µg/mL
same,MIC,Providencia sp.,2.1 µg/mL
same,MIC,[4],5.2 µg/mL
same,MIC,[5],21 µg/mL
same,MIC,[6],0.9 µg/mL
"NCC1=C(CC(=O)N[C@@H]2C(=O)N3C(C(=O)O)=C(CSc4ccc5nn(CC(=O)O)c(=O)n5n4)CS[C@H]23)CC=CC1 [BB-S493, 7-[(2-Aminomethyl-1,4-cyclohexadienyl)acetamido]3-(2-N-carboxymethyl-s-triazolo[4,5-b]pyridazin-3-on-6-ylthiomethyl)-3-cephem-4-carboxylic Acid]",ED50,E. coli Juhl,0.27 mg/kg
same,ED50,S. aureus Smith,0.29 mg/kg
same,MIC,Shig. dysenteriae,0.05 µg/mL
same,MIC,Shig. flexneri,25 µg/mL
same,MIC,Kl. pneumoniae; Kl. pneumoniae A9678,0.4 µg/mL
same,MIC,Kl. pneumoniae; Kl. pneumoniae A9867,0.2 µg/mL
same,MIC,Kl. pneumoniae; Kl. pneumoniae A9977,0.2 µg/mL
same,MIC,Kl. pneumoniae; Kl. pneumoniae A15130,0.2 µg/mL
same,MIC,Shig. sonnei,0.05 µg/mL
same,MIC,"E. coli; ATCC8739, table 2 (BB-S493), E. coli ATCC 8739",0.2 µg/mL
same,MIC,"E. coli; table 2 (BB-S493), E. coli A9660",0.1 µg/mL
same,MIC,"E. coli; table 2 (BB-S493), E. coli A15147",6.3 µg/mL
same,MIC,"E. coli; table 2 (BB-S493), E. coli A15810",0.2 µg/mL
same,MIC,"E. coli; table 2 (BB-S493), E. coli BX-1373",0.4 µg/mL
same,MIC,"E. coli; table 2 (BB-S493), E. coli Juhl A15119",0.2 µg/mL
same,MIC,"E. coli; table 2 (BB-S493), E. coli NIHJ",0.1 µg/mL
same,MIC,Sal. typhosa,0.1 µg/mL
same,MIC,S. aureus; S. aureus A9497,0.2 µg/mL
same,MIC,S. aureus; S. aureus BX-1633 A9606,0.4 µg/mL
same,MIC,S. aureus; S. aureus Smith A9537,0.4 µg/mL
same,MIC,"Ps. aeruginosa; Pseudomonas aeruginosa, Ps. aeruginosa A9843, read-out: MIC",> 100 µg/mL
same,MIC,Ps. aeruginosa; Ps. aerugionsa A9930,> 100 µg/mL
same,MIC,Pr. morganii; Pr. morganii A9553,> 100 µg/mL
same,MIC,Pr. morganii; Pr. morganii A20031,0.4 µg/mL
same,MIC,Enterob. cloacae,6.3 µg/mL
same,MIC,St. faecalis,100 µg/mL
same,MIC,Pr. mirabilis; Pr. mirabilis A9554,0.2 µg/mL
same,MIC,Pr. mirabilis; Pr. mirabilis A9900,0.2 µg/mL
same,MIC,B. anthracis,0.0125 µg/mL
same,MIC,Pr. vulgaris; Pr. vulgaris A9436,0.4 µg/mL
same,MIC,Pr. vulgaris; Pr. vulgaris A9699,6.3 µg/mL
same,MIC,Sal. enteritidis,0.1 µg/mL
same,MIC,Pr. rettgeri,0.1 µg/mL
same,MIC,Serr. marcescens,100 µg/mL
